Data set [1] has as its system Lolium perenne (LOLPE). Kind of data set: Example A glasshouse herbicide test, post-emergence, LOLPE. Conditions: Lolium perenne, post-emergence, 312 h, Rate 250 g/ha, sprayed after 8 days cultivation, evaluated after 13 days, read-out: Post-Emergence Activity LOLPE (100=total damage to plant; 0=no damage to plant). The data set is classed as in vivo. Put shortly:
(§1)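 Plants in pots of standard soil receive a spray of compound in acetone/water (50:50) plus 0.5% Tween 20, either one day (pre-emergence) or 8 days (post-emergence) after sowing. Phytotoxicity is assessed 13 days later, 0–100.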

In data set [2] the test system is Alopecurus myosuroides (ALOMY). Kind of data set: Example A glasshouse herbicide test, post-emergence, ALOMY. In kind it is in vivo. Conditions: Alopecurus myosuroides, post-emergence, 312 h, Rate 250 g/ha, sprayed after 8 days cultivation, evaluated after 13 days, read-out: Post-Emergence Activity ALOMY (100=total damage to plant; 0=no damage to plant). The method in brief: as §1

Data set [3] relates to Echinochloa crus-galli (ECHCG). Kind of data set: Example A glasshouse herbicide test, post-emergence, ECHCG. In kind it is in vivo. Conditions: Echinochloa crus-galli, post-emergence, 312 h, Rate 250 g/ha, sprayed after 8 days cultivation, evaluated after 13 days, read-out: Post-Emergence Activity ECHCG (100=total damage to plant; 0=no damage to plant). Put shortly:
as §1

Data set [4] has as its system Avena fatua (AVEFA). Kind of data set: Example A glasshouse herbicide test, post-emergence, AVEFA. The data set is classed as in vivo. Conditions: Avena fatua, post-emergence, 312 h, Rate 250 g/ha, sprayed after 8 days cultivation, evaluated after 13 days, read-out: Post-Emergence Activity AVEFA (100=total damage to plant; 0=no damage to plant). Put shortly: as §1
Data set [5] deals with Lolium perenne (LOLPE). Put plainly: Example A glasshouse herbicide test, pre-emergence, LOLPE. Conditions: Lolium perenne, pre-emergence, 312 h, Rate 250 g/ha, sprayed after cultivation for one day, evaluated after 13 days, read-out: Pre-Emergence Activity LOLPE (100=total damage to plant; 0=no damage to plant). The data set is classed as in vivo. The method in brief: as §1

For data set [6], the system named is Alopecurus myosuroides (ALOMY). Put plainly: Example A glasshouse herbicide test, pre-emergence, ALOMY. Conditions: Alopecurus myosuroides, pre-emergence, 312 h, Rate 250 g/ha, sprayed after cultivation for one day, evaluated after 13 days, read-out: Pre-Emergence Activity ALOMY (100=total damage to plant; 0=no damage to plant). In kind it is in vivo. The method in brief: as §1

Data set [7] relates to Echinochloa crus-galli (ECHCG). Put plainly: Example A glasshouse herbicide test, pre-emergence, ECHCG. In kind it is in vivo. Conditions: Echinochloa crus-galli, pre-emergence, 312 h, Rate 250 g/ha, sprayed after cultivation for one day, evaluated after 13 days, read-out: Pre-Emergence Activity ECHCG (100=total damage to plant; 0=no damage to plant). The method in brief: as §1

Data set [8] has as its system Avena fatua (AVEFA). Kind of data set: Example A glasshouse herbicide test, pre-emergence, AVEFA. The data set is classed as in vivo. Conditions: Avena fatua, pre-emergence, 312 h, Rate 250 g/ha, sprayed after cultivation for one day, evaluated after 13 days, read-out: Pre-Emergence Activity AVEFA (100=total damage to plant; 0=no damage to plant). Put shortly:
as §1

Data set [9] relates to Winter Wheat variety 'Hereward'. Put plainly: Example B crop damage test, post-emergence, unsafened wheat. Conditions: Rate 250 g/ha; post-emergence spray after 8 days cultivation; no safener; evaluated after 13 days. In kind it is in vivo. Put shortly:
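Winter wheat 'Hereward' was sprayed post-emergence 8 days after sowing, using formulated active ingredient in acetone/water (50:50) with 0.5% Tween 20. Plants grew in a glasshouse at 24/16 °C day/night, 14 h light and 65% humidity. Damage was scored 13 days later (0 = none, 100 = total).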

Data set [10] has the same test system. Kind of data set: Example B crop damage test, post-emergence, wheat seed treated with safener cloquintocet mexyl. The data set is classed as in vivo. Conditions: Rate 250 g/ha; post-emergence spray 8 days after sowing; seed treated with cloquintocet mexyl 0.5 g/kg dry seed; evaluated after 13 days. The method in brief:
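Wheat seed pre-treated with cloquintocet mexyl at 0.5 g/kg seed, sown 8 days before post-emergence spraying of compound in acetone/water (50:50) with 0.5% Tween 20. Glasshouse at 24/16° C, 14 h light, 65% humidity. Damage scored visually after 13 days, 0 (none) to 100 (total).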

On to `Cc1cc(C)c(C2C(=O)CC(Cc3ccccc3C)C2=O)c(C)c1` (stereo not shown) [Compound A15], for which the melting point (usually the temperature, or range, at which the solid turns liquid) fell in the range of 210 to 215.5 °C. Besides, the pest or weed control at 250 g/ha in the data set on Lolium perenne (LOLPE) [1] is 90%. Also, in data set [2], the pest or weed control at 250 g/ha came to 80%. Also, in data set [3], the pest or weed control at 250 g/ha came out at 40%. Besides, in the data set on Avena fatua (AVEFA) [4], the pest or weed control at 250 g/ha was 50%. Besides, in the data set with Lolium perenne (LOLPE) [5], the pest or weed control at 250 g/ha was 100%. In addition, the pest or weed control at 250 g/ha in data set [6] turned out to be 70%. Moreover, the pest or weed control at 250 g/ha in data set [7] amounted to 60%. In the data set on Avena fatua (AVEFA) [8], the pest or weed control at 250 g/ha worked out at 70%. For the same molecule, in [9], the “Winter Wheat (Hereward) damage (100=total damage to plant; 0=no damage to plant)” value was 30. The “Winter Wheat (Hereward) + cloquintocet mexyl damage (100=total damage to plant; 0=no damage to plant)” value in [10] is reported as 20.

As for `Cc1cc(C)c(C2C(=O)CC(Cc3ccc(C#N)cc3)C2=O)c(C)c1` (stereo not shown) [Compound A19], the melting point lay in the range of 249 to 251 °C. Besides, the pest or weed control at 250 g/ha in the data set with Lolium perenne (LOLPE) [1] worked out at 90%. Moreover, the pest or weed control at 250 g/ha in data set [2] was determined as 90%. For the same molecule, the pest or weed control at 250 g/ha in data set [3] was determined as 90%. Further, the pest or weed control at 250 g/ha in the data set with Avena fatua (AVEFA) [4] was 60%. In addition, the pest or weed control at 250 g/ha with Lolium perenne (LOLPE) [5] came out at 90%. The pest or weed control at 250 g/ha in data set [6] was found to be 80%. Moreover, in [7], the pest or weed control at 250 g/ha was 100%. Besides, the pest or weed control at 250 g/ha with Avena fatua (AVEFA) [8] is 40%. In addition, in data set [9], the “Winter Wheat (Hereward) damage (100=total damage to plant; 0=no damage to plant)” value is given as 60. Further, the “Winter Wheat (Hereward) + cloquintocet mexyl damage (100=total damage to plant; 0=no damage to plant)” value in data set [10] stood at 10.

As for `Cc1cc(C)cc(CC2CC(=O)C(c3c(C)cc(C)cc3C)C2=O)c1` (stereo not shown) [Compound A21], the melting point lay within 181 to 184 °C. Besides, the pest or weed control at 250 g/ha in the data set on Lolium perenne (LOLPE) [1] was determined as 30%. Also, the pest or weed control at 250 g/ha in data set [2] came to 40%. For the same molecule, the pest or weed control at 250 g/ha in data set [3] worked out at 60%. In addition, the pest or weed control at 250 g/ha in the data set with Avena fatua (AVEFA) [4] was found to be 20%. For the same molecule, the pest or weed control at 250 g/ha in the data set with Lolium perenne (LOLPE) [5] turned out to be 100%. Further, the pest or weed control at 250 g/ha in data set [6] is 60%. In addition, the pest or weed control at 250 g/ha in data set [7] is 90%. For the same molecule, the pest or weed control at 250 g/ha in the data set on Avena fatua (AVEFA) [8] turned out to be 20%. Moreover, in data set [9], the “Winter Wheat (Hereward) damage (100=total damage to plant; 0=no damage to plant)” value came to 20. Besides, the “Winter Wheat (Hereward) + cloquintocet mexyl damage (100=total damage to plant; 0=no damage to plant)” value in data set [10] amounted to 20.

The molecule `Cc1cc(C)c(C2C(=O)CC(Cc3cc(F)cc(F)c3)C2=O)c(C)c1` (stereo not shown) [Compound A20] had a melting point of 193 to 193.2 °C. For the same molecule, the pest or weed control at 250 g/ha in the data set on Lolium perenne (LOLPE) [1] amounted to 50%. Moreover, the pest or weed control at 250 g/ha in data set [2] was determined as 20%. In addition, the pest or weed control at 250 g/ha in [3] was 50%. Moreover, the pest or weed control at 250 g/ha in the data set on Avena fatua (AVEFA) [4] was determined as 30%. The pest or weed control at 250 g/ha in the data set with Lolium perenne (LOLPE) [5] amounted to 100%. The pest or weed control at 250 g/ha in data set [6] was 30%. In data set [7], the pest or weed control at 250 g/ha came to 80%. In the data set on Avena fatua (AVEFA) [8], the pest or weed control at 250 g/ha came out at 20%. In addition, the “Winter Wheat (Hereward) damage (100=total damage to plant; 0=no damage to plant)” value in data set [9] came to 10. In data set [10], the “Winter Wheat (Hereward) + cloquintocet mexyl damage (100=total damage to plant; 0=no damage to plant)” value amounted to 0.

Molecule `Cc1cc(C)c(C2C(=O)CC(Cc3ccc(S(C)(=O)=O)cc3)C2=O)c(C)c1` (stereo not shown) [Compound A23] gave a melting point of 235.3 to 238.6 °C. Further, the pest or weed control at 250 g/ha with Lolium perenne (LOLPE) [1] amounted to 50%. Moreover, the pest or weed control at 250 g/ha in [2] was 90%. In addition, the pest or weed control at 250 g/ha in data set [3] came to 90%. For the same molecule, in the data set with Avena fatua (AVEFA) [4], the pest or weed control at 250 g/ha was 90%. Further, the pest or weed control at 250 g/ha in the data set with Lolium perenne (LOLPE) [5] came out at 100%. Besides, the pest or weed control at 250 g/ha in [6] is 90%. Moreover, in [7], the pest or weed control at 250 g/ha was 90%. In addition, the pest or weed control at 250 g/ha with Avena fatua (AVEFA) [8] was determined as 80%. Further, in data set [9], the “Winter Wheat (Hereward) damage (100=total damage to plant; 0=no damage to plant)” value is 50. Besides, the “Winter Wheat (Hereward) + cloquintocet mexyl damage (100=total damage to plant; 0=no damage to plant)” value in data set [10] turned out to be 50.

Source of the values: patent US8791303B2, “Herbicides” (Syngenta Limited, priority 2009, dated 2014).
